Results: ChEMBL document CHEMBL5614438, “CETZOLE Analogs as Potent Ferroptosis Inducers and Their Target Identification Using Covalent/Affinity Probes” (J Med Chem, 2024)
The source made the active and inactive calls. No cut-off for these calls is given here.

Columns and labels:
NCI-H522 [1] = assay: Cytotoxicity against human NCI-H522 cells assessed as reduction in cell viability incubated for 3 days by methylene blue staining based spectrophotometric analysis; format: functional; details: NCI-H522, 72 h, time 3 day
NCI-H522 [2] = assay: Cytotoxicity against human NCI-H522 cells overexpressing GFP-tagged SLC7A11 assessed as reduction in cell viability incubated for 3 days by methylene blue staining based spectrophotometric analysis; format: functional; details: NCI-H522, 72 h, time 3 day
NCI-H522 [3] = assay: Cytotoxicity against human NCI-H522 cells overexpressing GFP-tagged RV assessed as reduction in cell viability incubated for 3 days by methylene blue staining based spectrophotometric analysis; format: functional; details: NCI-H522, 72 h, time 3 day
HT-1080 [4] = assay: Cytotoxicity against human HT-1080 cells assessed as reduction in cell viability incubated for 3 days by methylene blue staining based spectrophotometric analysis; format: functional; details: HT-1080, 72 h, time 3 day
U2OS = assay: Cytotoxicity against human U2OS cells assessed as reduction in cell viability incubated for 3 days by methylene blue staining based spectrophotometric analysis; format: functional; details: 72 h, time 3 day
MDA-MB-231 = assay: Cytotoxicity against human MDA-MB-231 cells assessed as reduction in cell viability incubated for 3 days by methylene blue staining based spectrophotometric analysis; format: functional; details: MDA-MB-231, 72 h, time 3 day
NCI-H522 [5] = assay: Induction of cell death in human NCI-H522 cells at 10 uM incubated for 4 to 5 hrs by live cell imaging analysis relative to control; format: functional; details: time 4-5 hrs
NCI-H522 [6] = assay: Induction of cell death in human NCI-H522 cells at 10 uM incubated for 4 to 5 hrs by live cell imaging analysis; format: functional, cell-based; details: time 4-5 hrs
NCI-H522 [7] = assay: Induction of ferroptosis in human NCI-H522 cells assessed as cell viability incubated for 3 days in presence of liproxstatin-1 by methylene blue staining based spectrophotometric analysis relative to control; format: functional; details: time 3 day
NCI-H522 [8] = assay: Induction of ferroptosis in human NCI-H522 cells assessed as increase in intracellular lipid peroxidation accumulation at 4.08 uM incubated for 6 hrs by C11 BODIPY 581/591 staining based flow cytometry; format: functional, cell-based
NCI-H522 [9] = assay: Cytotoxicity against human NCI-H522 cells assessed as reduction in cell viability at 1 uM incubated for 3 days by methylene blue staining based spectrophotometric analysis; format: functional; details: time 3.0 day
HT-1080 [10] = assay: Cytotoxicity against human HT-1080 cells assessed as reduction in cell viability at 1 uM incubated for 3 days by methylene blue staining based spectrophotometric analysis; format: functional; details: time 3.0 day
WI-38 [11] = assay: Cytotoxicity against human WI-38 cells assessed as reduction in cell viability at 1 uM incubated for 3 days by methylene blue staining based spectrophotometric analysis; format: toxicity; details: wi-38, 72 h, time 3 day
MEF [12] = assay: Cytotoxicity against mouse MEF cells assessed as reduction in cell viability at 1 uM incubated for 3 days by methylene blue staining based spectrophotometric analysis; format: toxicity; details: 72 h, time 3 day
[13] = target: Glucose-6-phosphate 1-dehydrogenase (Homo sapiens) (UniProt P11413); assay: Inhibition of G6PD in human HCT-116 cells using G6P as substrate at 25 uM incubated for 20 mins followed by G6P and […]; format: cell-based
[14] = target: T1, Peroxiredoxin-4 (Homo sapiens) (UniProt Q13162); assay: Inhibition of PRDX4 (unknown origin)
T1 sequence (whole entry): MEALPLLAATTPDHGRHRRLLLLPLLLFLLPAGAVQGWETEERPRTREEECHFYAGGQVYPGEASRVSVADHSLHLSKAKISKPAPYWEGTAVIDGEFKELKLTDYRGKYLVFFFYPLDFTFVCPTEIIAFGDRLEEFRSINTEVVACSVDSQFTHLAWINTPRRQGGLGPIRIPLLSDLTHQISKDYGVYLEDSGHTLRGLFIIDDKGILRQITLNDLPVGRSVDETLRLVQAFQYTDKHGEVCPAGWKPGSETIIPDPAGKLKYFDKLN

NCI-H522 [15] = assay: Induction of ferroptosis in human NCI-H522 cells assessed as reduction in cell viability at 13.68 uM incubated for 3 days in presence of liproxstatin-1 by methylene blue staining based spectrophotometric analysis; format: functional; details: time 3.0 day
NCI-H522 [16] = assay: Induction of ferroptosis in human NCI-H522 cells assessed as increase in intracellular lipid peroxidation accumulation at 7.68 uM incubated for 6 hrs by C11 BODIPY 581/591 staining based flow cytometry; format: functional, cell-based
NCI-H522 [17] = assay: Induction of ferroptosis in human NCI-H522 cells assessed as reduction in cell viability at 7.68 uM incubated for 3 days in presence of liproxstatin-1 by methylene blue staining based spectrophotometric analysis; format: functional; details: time 3.0 day
[18] = target: Glucose-6-phosphate 1-dehydrogenase (Homo sapiens) (UniProt P11413); assay: Inhibition of G6PD in human HCT-116 cells using G6P as substrate at 100 uM incubated for 20 mins followed by G6P and […]; format: cell-based
WI-38 [19] = assay: Cytotoxicity against human WI-38 cells assessed as reduction in cell viability incubated for 3 days by methylene blue staining based spectrophotometric analysis; format: toxicity; details: wi-38, 72 h, time 3 day
MEF [20] = assay: Cytotoxicity against mouse MEF cells assessed as reduction in cell viability incubated for 3 days by methylene blue staining based spectrophotometric analysis; format: toxicity; details: 72 h, time 3 day
NCI-H522 [21] = assay: Induction of cell death in human NCI-H522 cells at 10 uM incubated for 3 to 4 hrs by live cell imaging analysis relative to control; format: functional; details: time 3-4 hrs
NCI-H522 [22] = assay: Induction of ferroptosis in human NCI-H522 cells assessed as reduction in cell viability at 3.3 uM incubated for 3 days in presence of liproxstatin-1 by methylene blue staining based spectrophotometric analysis; format: functional; details: time 3.0 day

Sequence of Glucose-6-phosphate 1-dehydrogenase (Homo sapiens) (P11413 whole entry): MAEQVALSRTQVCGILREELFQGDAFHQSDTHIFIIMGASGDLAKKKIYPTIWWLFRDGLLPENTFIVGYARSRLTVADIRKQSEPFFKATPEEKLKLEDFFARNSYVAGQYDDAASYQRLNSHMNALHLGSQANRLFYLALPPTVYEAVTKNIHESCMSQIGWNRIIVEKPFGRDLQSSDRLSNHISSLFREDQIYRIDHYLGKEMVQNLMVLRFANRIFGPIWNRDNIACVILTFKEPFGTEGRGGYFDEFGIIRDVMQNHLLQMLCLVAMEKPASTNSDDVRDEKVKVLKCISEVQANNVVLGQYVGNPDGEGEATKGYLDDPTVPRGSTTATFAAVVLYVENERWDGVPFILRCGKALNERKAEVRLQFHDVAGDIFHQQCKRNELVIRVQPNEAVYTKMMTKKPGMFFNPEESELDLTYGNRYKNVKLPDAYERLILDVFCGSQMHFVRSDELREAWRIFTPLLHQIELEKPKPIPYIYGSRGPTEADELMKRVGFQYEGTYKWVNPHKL

| SMILES | CC50 (NCI-H522 [1]) [µM] | CC50 (NCI-H522 [2]) [µM] | CC50 (NCI-H522 [3]) [µM] | CC50 (HT-1080 [4]) [µM] | CC50 (U2OS) [µM] | CC50 (MDA-MB-231) [µM] | also measured |
| --- | --- | --- | --- | --- | --- | --- | --- |
| C#Cc1nc(C2=C(C)C(=O)/C(=N/O)C2)cs1 | > 20 | > 20 | > 20 | 5.29 | > 20 | 8.05 | – |
| C#Cc1nc(C2=C(C)C(=O)NCC2)cs1 | 5.4 | 20.2 | 10.9 | 4.89 | 7.81 | 9.32 | – |
| C#Cc1nc(C2=C(C)/C(=N/OCc3ccccc3)CC2)cs1 | 1.36 | 2.41 | 2.54 | 0.81 | 19.3 | 4.17 | Activity (NCI-H522 [5]): 50%; Activity (NCI-H522 [6]): Active; Activity (NCI-H522 [7]): 85%; Activity (NCI-H522 [8]): Active; Activity (NCI-H522 [9]): Active; Activity (HT-1080 [10]): Active; Activity (WI-38 [11]): Non-Toxic; Activity (MEF [12]): Non-Toxic |
| C#Cc1nc(C2=C(C)C(O)/C(=N/O)C2)cs1 (stereo not given) | 4.68 | > 20 | 5.55 | 5.77 | > 20 | 6.57 | – |
| CC1=C(c2csc(Br)n2)CCC1O (stereo not given) | > 20 | – | – | > 20 | – | > 20 | – |
| C#Cc1nc(C2=C(C)C(OC(=O)C(C)(C)C)/C(=N\OC(=O)C(C)(C)C)C2)cs1 (stereo not given) | 0.411 | 0.387 | 0.472 | 0.033 | 3.39 | 0.44 | – |
| C#Cc1nc(C2=C(C)C(=O)/C(=N/OC(C)=O)C2)cs1 | 11 | > 20 | > 20 | > 20 | > 20 | 18.5 | – |
| CC1=C(c2csc(Br)n2)C/C(=N\OCC(=O)Nc2ccc3oc(=O)c(C)cc3c2)C1=O | > 20 | – | – | > 20 | – | > 20 | – |
| COc1ccc(N(C(=O)CCl)C(C(=O)NCCc2ccccc2)c2cccs2)cc1Cl (stereo not given) | – | – | – | – | – | – | inhibition [13]: Active; inhibition [14]: inactive |
| C#Cc1nc(C2=C(C)C(OC(=O)c3ccccc3)/C(=N\OC(=O)c3ccccc3)C2)cs1 (stereo not given) | 0.55 | 0.84 | 0.58 | 0.08 | 0.22 | 0.54 | – |
| C#Cc1nc(C2=C(C)C(=O)/C(=N/OCC(=O)Nc3ccc4oc(=O)c(C)cc4c3)C2)cs1 | > 20 | – | – | > 20 | – | > 20 | – |
| C#CCCC(=O)Nc1ccc(C(=O)c2ccc(NC(=O)CO/N=C3\CC(c4csc(Br)n4)=C(C)C3O)cc2)cc1 (stereo not given) | > 20 | – | – | > 20 | – | > 20 | – |
| CCN(CC)c1ccc2cc(C(=O)NC3CCC(c4csc(Br)n4)=C3C)c(=O)oc2c1 (stereo not given) | > 20 | – | – | > 20 | – | > 20 | – |
| C#Cc1nc(C2=C(C)C(O)/C(=N\OCc3ccccc3)C2)cs1 (stereo not given) | 1.18 | 2.17 | 3.02 | 0.93 | > 20 | 13.4 | – |
| C#Cc1nc(C2=C(C)C(NC(=O)c3cc4ccc(N(CC)CC)cc4oc3=O)CC2)cs1 (stereo not given) | 4.56 | – | – | 4.58 | – | 1.2 | Activity (NCI-H522 [15]): inactive |
| C#Cc1nc(C2=C(C)C(OC(=O)CCCCCCC)/C(=N/OC(=O)CCCCCCC)C2)cs1 (stereo not given) | > 20 | > 20 | > 20 | > 20 | > 20 | 19.1 | – |
| C#Cc1nc(C2=C(C)C(OC(=O)C(c3ccccc3)c3ccccc3)/C(=N\OC(=O)C(c3ccccc3)c3ccccc3)C2)cs1 (stereo not given) | 3.5 | 9.34 | 5.02 | 1.85 | 9.1 | 14.9 | – |
| C#Cc1nc(C2=C(C)C(O)CC2)cs1 (racemic) | – | 10.3 | – | 3.07 | 14.9 | 6.28 | Activity (NCI-H522 [5]): 50%; Activity (NCI-H522 [6]): Active; Activity (NCI-H522 [16]): Active; Activity (NCI-H522 [9]): inactive; Activity (HT-1080 [10]): inactive; Activity (WI-38 [11]): Non-Toxic; Activity (MEF [12]): Non-Toxic; Activity (NCI-H522 [17]): inactive; inhibition [18]: Active; inhibition [14]: inactive |
| COC(=O)c1ccc([C@H]2c3[nH]c4ccccc4c3C[C@H](C(=O)OC)N2C(=O)CCl)cc1 | 1.1 | 2.84 | 0.31 | 0.14 | 2.46 | 0.22 | CC50 (WI-38 [19]): 0.05 µM; CC50 (MEF [20]): 0.04 µM; Activity (NCI-H522 [21]): 50%; Activity (NCI-H522 [9]): Active; Activity (HT-1080 [10]): Active; Activity (WI-38 [11]): Toxic; Activity (MEF [12]): Toxic; Activity (NCI-H522 [22]): inactive |
| C#CCO/N=C1\CC(c2csc(Br)n2)=C(C)C1O (stereo not given) | > 20 | – | – | > 20 | – | > 20 | – |
